Experimental data published in patent US11180494B2, “Substituted amino acids as integrin inhibitors” (Pliant Therapeutics, Inc., priority 2018, dated 2021).

Molecular target: human integrin αvβ6 (Homo sapiens (Human), UniProt P06756+P18564)
Test: Proximity-based integrin receptor binding assay (ALPHASCREEN) for inhibitor potency
Details: inhibition of binding of TGF-b1 LAP to human integrin αvβ6; values given in ranges
Procedure: To gauge the potency of inhibitors of binding to human integrin αvβ6, inhibitor compounds and integrin were incubated together with TGF-b1 LAP and biotinylated anti-LAP antibody plus acceptor and donor beads, following the manufacture's recommendations. The donor beads were coated with streptavidin. […] All incubations occurred at room temperatures in 50 mM Tris-HCl, pH 7.5, 0.1% BSA supplemented with 1 mM each CaCl2 and MgCl2.
The order of reagent addition was as follows:
1. Alpha-v-beta-6 integrin, test inhibitor compound, LAP, biotinylated anti-LAP antibody and acceptor beads were all added together.
2. After 2 hours, donor beads were added. After another 30 minute incubation, samples were then read.
Integrin binding was evaluated by exciting donor beads at 680 nm, and measuring the fluorescent signal produced, between 520-620 nm, using a Biotek Instruments (Winooski, Vt., USA) SynergyNeo2 multimode plate reader. […] Data analysis for IC50 determinations was carried out by nonlinear four parameter logistic regression analysis using Dotmatics ELN Software (Core Informatics Inc., Branford, Conn.).

Sequence of human integrin αvβ6 (P06756 31-992): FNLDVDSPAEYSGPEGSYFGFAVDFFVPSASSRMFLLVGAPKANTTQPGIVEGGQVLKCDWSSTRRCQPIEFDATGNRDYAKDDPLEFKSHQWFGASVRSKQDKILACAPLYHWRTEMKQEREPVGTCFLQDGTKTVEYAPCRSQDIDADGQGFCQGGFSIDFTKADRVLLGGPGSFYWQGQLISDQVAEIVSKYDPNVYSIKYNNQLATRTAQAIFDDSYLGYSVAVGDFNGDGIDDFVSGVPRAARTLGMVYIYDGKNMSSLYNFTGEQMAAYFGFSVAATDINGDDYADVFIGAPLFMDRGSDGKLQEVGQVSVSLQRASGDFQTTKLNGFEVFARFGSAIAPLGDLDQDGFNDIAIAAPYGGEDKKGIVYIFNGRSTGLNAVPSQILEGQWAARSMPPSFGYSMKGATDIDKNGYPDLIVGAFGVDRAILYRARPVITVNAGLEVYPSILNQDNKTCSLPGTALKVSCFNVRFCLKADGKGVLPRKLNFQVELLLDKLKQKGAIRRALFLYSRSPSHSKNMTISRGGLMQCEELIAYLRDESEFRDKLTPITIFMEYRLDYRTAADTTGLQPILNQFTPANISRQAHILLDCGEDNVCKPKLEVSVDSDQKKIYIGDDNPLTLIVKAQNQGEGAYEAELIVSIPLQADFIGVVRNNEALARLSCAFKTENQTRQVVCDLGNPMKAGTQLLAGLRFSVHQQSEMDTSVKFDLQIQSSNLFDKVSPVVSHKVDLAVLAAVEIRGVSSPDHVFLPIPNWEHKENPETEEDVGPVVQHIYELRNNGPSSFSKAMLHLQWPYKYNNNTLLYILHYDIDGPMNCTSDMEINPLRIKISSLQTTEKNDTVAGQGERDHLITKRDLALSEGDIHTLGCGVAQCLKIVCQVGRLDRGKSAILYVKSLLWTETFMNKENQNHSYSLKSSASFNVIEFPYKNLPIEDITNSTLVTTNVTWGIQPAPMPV
Sequence of human integrin αvβ6 (P18564 22-707): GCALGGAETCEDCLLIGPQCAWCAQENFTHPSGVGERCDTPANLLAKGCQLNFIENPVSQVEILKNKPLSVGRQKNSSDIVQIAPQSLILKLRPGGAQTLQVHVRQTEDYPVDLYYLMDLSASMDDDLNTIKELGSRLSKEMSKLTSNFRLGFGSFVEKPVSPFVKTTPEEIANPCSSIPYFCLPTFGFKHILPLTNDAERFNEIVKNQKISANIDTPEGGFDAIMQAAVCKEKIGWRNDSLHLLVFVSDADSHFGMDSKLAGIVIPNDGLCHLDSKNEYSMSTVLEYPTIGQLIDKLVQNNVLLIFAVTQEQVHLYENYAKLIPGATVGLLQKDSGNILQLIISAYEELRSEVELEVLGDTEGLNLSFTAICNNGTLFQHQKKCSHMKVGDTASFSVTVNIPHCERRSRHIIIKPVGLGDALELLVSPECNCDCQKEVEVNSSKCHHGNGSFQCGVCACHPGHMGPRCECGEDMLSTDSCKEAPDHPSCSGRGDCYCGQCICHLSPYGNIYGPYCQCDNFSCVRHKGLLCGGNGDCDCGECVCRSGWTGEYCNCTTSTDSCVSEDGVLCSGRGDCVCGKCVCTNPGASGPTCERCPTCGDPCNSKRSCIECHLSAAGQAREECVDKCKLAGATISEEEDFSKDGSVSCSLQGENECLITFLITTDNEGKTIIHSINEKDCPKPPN

Row | IC50 [nM] | Compound
1 | < 50 | O=C(N[C@@H](CCO[C@H]1C[C@H](CCc2ccc3c(n2)NCCC3)C1)C(=O)O)c1cccc(Cl)c1F [Compound 27, N-(3-chloro-2-fluorobenzoyl)-O-(trans-3-(2-(5,6,7,8-tetrahydro-1,8-naphthyridin-2-yl)ethyl)cyclobutyl)homoserine]
2 | < 50 | O=C(N[C@@H](CCO[C@H]1C[C@H](CCc2ccc3c(n2)NCCC3)C1)C(=O)O)c1cc(F)cc(F)c1 [Compound 28, N-(3,5-difluorobenzoyl)-O-(trans-3-(2-(5,6,7,8-tetrahydro-1,8-naphthyridin-2-yl)ethyl)cyclobutyl)homoserine]
3 | < 50 | O=C(N[C@@H](CCO[C@H]1C[C@H](CCc2ccc3c(n2)NCCC3)C1)C(=O)O)c1ccc(F)c(F)c1 [Compound 29, N-(3,4-difluorobenzoyl)-O-(trans-3-(2-(5,6,7,8-tetrahydro-1,8-naphthyridin-2-yl)ethyl)cyclobutyl)homoserine]
4 | < 50 | O=C(N[C@@H](CCO[C@H]1C[C@H](CCc2ccc3c(n2)NCCC3)C1)C(=O)O)c1cccc(Cl)c1Cl [Compound 30, N-(2,3-dichlorobenzoyl)-O-(trans-3-(2-(5,6,7,8-tetrahydro-1,8-naphthyridin-2-yl)ethyl)cyclobutyl)homoserine]
5 | < 50 | O=C(N[C@@H](CCO[C@H]1C[C@H](CCc2ccc3c(n2)NCCC3)C1)C(=O)O)c1c(F)cccc1Cl [Compound 31, N-(2-chloro-6-fluorobenzoyl)-O-(trans-3-(2-(5,6,7,8-tetrahydro-1,8-naphthyridin-2-yl)ethyl)cyclobutyl)homoserine]
6 | < 50 | O=C(N[C@@H](CCO[C@H]1C[C@H](CCc2ccc3c(n2)NCCC3)C1)C(=O)O)c1c(F)cccc1F [Compound 32, N-(2,6-difluorobenzoyl)-O-(trans-3-(2-(5,6,7,8-tetrahydro-1,8-naphthyridin-2-yl)ethyl)cyclobutyl)homoserine]
7 | < 50 | O=C(N[C@@H](CCO[C@H]1C[C@H](CCc2ccc3c(n2)NCCC3)C1)C(=O)O)c1cc(F)ccc1F [Compound 33, N-(2,5-difluorobenzoyl)-O-(trans-3-(2-(5,6,7,8-tetrahydro-1,8-naphthyridin-2-yl)ethyl)cyclobutyl)homoserine]
8 | 50 to 250 | O=C(N[C@@H](CCO[C@H]1C[C@H](CCc2ccc3c(n2)NCCC3)C1)C(=O)O)c1ccc(Cl)c(Cl)c1 [Compound 34, N-(3,4-dichlorobenzoyl)-O-(trans-3-(2-(5,6,7,8-tetrahydro-1,8-naphthyridin-2-yl)ethyl)cyclobutyl)homoserine]
9 | 50 to 250 | O=C(N[C@@H](CCO[C@H]1C[C@H](CCc2ccc3c(n2)NCCC3)C1)C(=O)O)c1ccccn1 [Compound 35, N-picolinoyl-O-(trans-3-(2-(5,6,7,8-tetrahydro-1,8-naphthyridin-2-yl)ethyl)cyclobutyl)homoserine]
10 | < 50 | O=C(N[C@@H](CCO[C@H]1C[C@H](CCc2ccc3c(n2)NCCC3)C1)C(=O)O)c1cccnc1 [Compound 36, N-nicotinoyl-O-(trans-3-(2-(5,6,7,8-tetrahydro-1,8-naphthyridin-2-yl)ethyl)cyclobutyl)homoserine]
11 | < 50 | O=C(NC(CCO[C@H]1C[C@H](CCc2ccc3c(n2)NCCC3)C1)C(=O)O)c1ccncc1 (stereo partly drawn) [Compound 37, N-isonicotinoyl-O-(trans-3-(2-(5,6,7,8-tetrahydro-1,8-naphthyridin-2-yl)ethyl)cyclobutyl)homoserine]
12 | 50 to 250 | Cn1ncc2c(C(=O)N[C@@H](CCO[C@H]3C[C@H](CCc4ccc5c(n4)NCCC5)C3)C(=O)O)cccc21 [Compound 38, N-(1-methyl-1H-indazole-4-carbonyl)-O-(trans-3-(2-(5,6,7,8-tetrahydro-1,8-naphthyridin-2-yl)ethyl)cyclobutyl)homoserine]
13 | 50 to 250 | Cn1cc2ccc(C(=O)N[C@@H](CCO[C@H]3C[C@H](CCc4ccc5c(n4)NCCC5)C3)C(=O)O)cc2n1 [Compound 39, N-(2-methyl-2H-indazole-6-carbonyl)-O-(trans-3-(2-(5,6,7,8-tetrahydro-1,8-naphthyridin-2-yl)ethyl)cyclobutyl)homoserine]
14 | 50 to 250 | Cn1cc2cc(C(=O)N[C@@H](CCO[C@H]3C[C@H](CCc4ccc5c(n4)NCCC5)C3)C(=O)O)ccc2n1 [Compound 40, N-(2-methyl-2H-indazole-5-carbonyl)-O-(trans-3-(2-(5,6,7,8-tetrahydro-1,8-naphthyridin-2-yl)ethyl)cyclobutyl)homoserine]
15 | < 50 | Cn1ccc2c(C(=O)N[C@@H](CCO[C@H]3C[C@H](CCc4ccc5c(n4)NCCC5)C3)C(=O)O)ccnc21 [Compound 41, N-(1-methyl-1H-pyrrolo[2,3-b]pyridine-4-carbonyl)-O-(trans-3-(2-(5,6,7,8-tetrahydro-1,8-naphthyridin-2-yl)ethyl)cyclobutyl)homoserine]
16 | 50 to 250 | O=C(O)C(CCO[C@H]1C[C@H](CCc2ccc3c(n2)NCCC3)C1)NC(=O)[C@@H](CO)c1ccccc1 (stereo partly drawn) [Compound 42, N—((R)-3-hydroxy-2-phenylpropanoyl)-O-(trans-3-(2-(5,6,7,8-tetrahydro-1,8-naphthyridin-2-yl)ethyl)cyclobutyl)homoserine]
17 | 250 to 1000 | O=C(O)C(CCO[C@H]1C[C@H](CCc2ccc3c(n2)NCCC3)C1)NC(=O)[C@@H](CO)c1ccccc1 (stereo partly drawn) [Compound 43, N—((R)-3-hydroxy-2-phenylpropanoyl)-O-(trans-3-(2-(5,6,7,8-tetrahydro-1,8-naphthyridin-2-yl)ethyl)cyclobutyl)homoserine]
18 | 50 to 250 | CCC(CC)C(=O)N[C@@H](CCO[C@H]1C[C@H](CCc2ccc3c(n2)NCCC3)C1)C(=O)O [Compound 44, N-(2-ethylbutanoyl)-O-(trans-3-(2-(5,6,7,8-tetrahydro-1,8-naphthyridin-2-yl)ethyl)cyclobutyl)homoserine]
19 | 50 to 250 | CCC(CC)CC(=O)NC(CCO[C@H]1C[C@H](CCc2ccc3c(n2)NCCC3)C1)C(=O)O (stereo partly drawn) [Compound 45, N-(3-ethylpentanoyl)-O-(trans-3-(2-(5,6,7,8-tetrahydro-1,8-naphthyridin-2-yl)ethyl)cyclobutyl)homoserine]
20 | 250 to 1000 | O=C(O)C(CCO[C@H]1C[C@H](CCc2ccc3c(n2)NCCC3)C1)NC(=O)[C@H](CO)c1ccccc1 (stereo partly drawn) [Compound 46, N—((S)-3-hydroxy-2-phenylpropanoyl)-O-(trans-3-(2-(5,6,7,8-tetrahydro-1,8-naphthyridin-2-yl)ethyl)cyclobutyl)homoserine]
21 | 250 to 1000 | O=C(O)C(CCO[C@H]1C[C@H](CCc2ccc3c(n2)NCCC3)C1)NC(=O)[C@H](CO)c1ccccc1 (stereo partly drawn) [Compound 47, N—((S)-3-hydroxy-2-phenylpropanoyl)-O-(trans-3-(2-(5,6,7,8-tetrahydro-1,8-naphthyridin-2-yl)ethyl)cyclobutyl)homoserine]
22 | 250 to 1000 | Cn1ccc2cc(C(=O)N[C@@H](CCO[C@H]3C[C@H](CCc4ccc5c(n4)NCCC5)C3)C(=O)O)cnc21 [Compound 48, N-(1-methyl-1H-pyrrolo[2,3-b]pyridine-5-carbonyl)-O-(trans-3-(2-(5,6,7,8-tetrahydro-1,8-naphthyridin-2-yl)ethyl)cyclobutyl)homoserine]
23 | 50 to 250 | O=C(NC(CCO[C@H]1C[C@H](CCc2ccc3c(n2)NCCC3)C1)C(=O)O)c1cccc(-c2cncs2)c1 (stereo partly drawn) [Compound 49, O-(trans-3-(2-(5,6,7,8-tetrahydro-1,8-naphthyridin-2-yl)ethyl)cyclobutyl)-N-(3-(thiazol-5-yl)benzoyl)homoserine]
24 | < 50 | O=C(N[C@@H](CCO[C@H]1C[C@H](CCc2ccc3c(n2)NCCC3)C1)C(=O)O)c1cccc(CO)c1 [Compound 50, N-(3-(hydroxymethyl)benzoyl)-O-(trans-3-(2-(5,6,7,8-tetrahydro-1,8-naphthyridin-2-yl)ethyl)cyclobutyl)homoserine]
25 | < 50 | O=C(N[C@@H](CCO[C@H]1C[C@H](CCc2ccc3c(n2)NCCC3)C1)C(=O)O)c1cccc2ncccc12 [Compound 51, N-(quinoline-5-carbonyl)-O-(trans-3-(2-(5,6,7,8-tetrahydro-1,8-naphthyridin-2-yl)ethyl)cyclobutyl)homoserine]
26 | < 50 | O=C(N[C@@H](CCO[C@H]1C[C@H](CCc2ccc3c(n2)NCCC3)C1)C(=O)O)c1ccccc1C1CC1 [Compound 52, N-(2-cyclopropylbenzoyl)-O-(trans-3-(2-(5,6,7,8-tetrahydro-1,8-naphthyridin-2-yl)ethyl)cyclobutyl)homoserine]
27 | 50 to 250 | O=C(N[C@@H](CCO[C@H]1C[C@H](CCc2ccc3c(n2)NCCC3)C1)C(=O)O)c1ccc2cccnc2c1 [Compound 53, N-(quinoline-7-carbonyl)-O-(trans-3-(2-(5,6,7,8-tetrahydro-1,8-naphthyridin-2-yl)ethyl)cyclobutyl)homoserine]
28 | 50 to 250 | O=C(N[C@@H](CCO[C@H]1C[C@H](CCc2ccc3c(n2)NCCC3)C1)C(=O)O)c1ccc2ncccc2c1 [Compound 54, N-(quinoline-6-carbonyl)-O-(trans-3-(2-(5,6,7,8-tetrahydro-1,8-naphthyridin-2-yl)ethyl)cyclobutyl)homoserine]
29 | 250 to 1000 | O=C(N[C@@H](CCO[C@H]1C[C@H](CCc2ccc3c(n2)NCCC3)C1)C(=O)O)c1cccc2cccnc12 [Compound 55, N-(quinoline-8-carbonyl)-O-(trans-3-(2-(5,6,7,8-tetrahydro-1,8-naphthyridin-2-yl)ethyl)cyclobutyl)homoserine]
